From ChEMBL document CHEMBL5291721, “A preclinical secondary pharmacology resource illuminates target-adverse drug reaction associations of marketed drugs” (Nat Commun, 2023)

Legend:
D(1A) dopamine receptor = D(1A) dopamine receptor (Homo sapiens, UniProt P21728); type: functional, cell-based
Adenosine receptor A1 = target: T1, Adenosine receptor A1 (Homo sapiens, UniProt P30542)
T1 sequence (P30542 whole entry): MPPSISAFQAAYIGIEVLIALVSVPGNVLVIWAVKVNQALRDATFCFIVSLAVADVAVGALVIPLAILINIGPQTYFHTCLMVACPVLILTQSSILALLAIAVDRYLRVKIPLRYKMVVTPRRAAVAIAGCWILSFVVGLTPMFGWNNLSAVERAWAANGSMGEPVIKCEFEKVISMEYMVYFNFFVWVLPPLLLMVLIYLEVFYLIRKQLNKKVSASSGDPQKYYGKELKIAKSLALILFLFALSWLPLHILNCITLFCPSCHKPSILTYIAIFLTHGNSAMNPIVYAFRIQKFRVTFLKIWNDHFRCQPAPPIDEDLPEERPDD

[1] = target: T2, Amine oxidase [flavin-containing] A (Homo sapiens, UniProt P21397); type: functional
T2 sequence (P21397 whole entry): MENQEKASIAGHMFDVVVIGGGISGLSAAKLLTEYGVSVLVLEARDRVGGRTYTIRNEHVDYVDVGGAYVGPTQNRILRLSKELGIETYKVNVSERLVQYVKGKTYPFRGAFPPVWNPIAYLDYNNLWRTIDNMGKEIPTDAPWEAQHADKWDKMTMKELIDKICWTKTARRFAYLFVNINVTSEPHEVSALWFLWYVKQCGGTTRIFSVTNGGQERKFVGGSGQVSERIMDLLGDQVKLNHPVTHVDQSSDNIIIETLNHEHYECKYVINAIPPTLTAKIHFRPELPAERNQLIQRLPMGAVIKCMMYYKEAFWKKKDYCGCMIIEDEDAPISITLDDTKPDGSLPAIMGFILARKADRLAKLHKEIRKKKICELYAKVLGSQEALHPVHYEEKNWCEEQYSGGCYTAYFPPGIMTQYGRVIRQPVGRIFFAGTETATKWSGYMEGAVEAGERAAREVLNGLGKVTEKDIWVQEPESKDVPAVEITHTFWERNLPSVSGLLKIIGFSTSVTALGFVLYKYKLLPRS

[2] = target: T3, Alpha-2A adrenergic receptor (Homo sapiens, UniProt P08913); type: functional, cell-based
T3 sequence (P08913 whole entry): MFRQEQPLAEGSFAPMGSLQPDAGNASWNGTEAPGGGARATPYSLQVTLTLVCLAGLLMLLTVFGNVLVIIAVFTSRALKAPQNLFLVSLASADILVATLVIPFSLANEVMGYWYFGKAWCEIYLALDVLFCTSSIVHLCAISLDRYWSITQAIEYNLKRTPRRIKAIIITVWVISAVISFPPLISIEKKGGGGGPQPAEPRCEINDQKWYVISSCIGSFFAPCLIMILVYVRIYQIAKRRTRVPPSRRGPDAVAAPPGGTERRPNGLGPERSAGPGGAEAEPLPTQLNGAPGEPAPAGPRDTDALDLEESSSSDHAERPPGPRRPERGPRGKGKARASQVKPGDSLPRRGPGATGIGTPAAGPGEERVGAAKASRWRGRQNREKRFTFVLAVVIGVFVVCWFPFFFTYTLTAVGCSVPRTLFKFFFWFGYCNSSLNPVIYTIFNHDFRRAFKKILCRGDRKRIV

[3] = target: Neuronal acetylcholine receptor subunit alpha-4 (Homo sapiens, UniProt P43681)
[4] = target: T3, Alpha-2A adrenergic receptor; type: functional, cell-based; remark: listed apart in the source
Adenosine receptor A3 = target: T4, Adenosine receptor A3 (Homo sapiens, UniProt P0DMS8)
T4 sequence (P0DMS8 whole entry): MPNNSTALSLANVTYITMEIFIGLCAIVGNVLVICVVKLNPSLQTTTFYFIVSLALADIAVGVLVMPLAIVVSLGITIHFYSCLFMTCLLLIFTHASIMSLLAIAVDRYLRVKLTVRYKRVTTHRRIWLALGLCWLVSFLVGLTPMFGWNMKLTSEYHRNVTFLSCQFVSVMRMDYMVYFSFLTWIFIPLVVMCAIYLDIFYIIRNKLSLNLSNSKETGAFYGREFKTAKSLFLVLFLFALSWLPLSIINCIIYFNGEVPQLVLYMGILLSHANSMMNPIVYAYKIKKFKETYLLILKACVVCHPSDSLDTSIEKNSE

[5] = target: Vascular endothelial growth factor receptor 2 (Homo sapiens, UniProt P35968); type: functional
[6] = target: T5, Muscarinic acetylcholine receptor M1 (Homo sapiens, UniProt P11229); type: functional, cell-based
T5 sequence (P11229 whole entry): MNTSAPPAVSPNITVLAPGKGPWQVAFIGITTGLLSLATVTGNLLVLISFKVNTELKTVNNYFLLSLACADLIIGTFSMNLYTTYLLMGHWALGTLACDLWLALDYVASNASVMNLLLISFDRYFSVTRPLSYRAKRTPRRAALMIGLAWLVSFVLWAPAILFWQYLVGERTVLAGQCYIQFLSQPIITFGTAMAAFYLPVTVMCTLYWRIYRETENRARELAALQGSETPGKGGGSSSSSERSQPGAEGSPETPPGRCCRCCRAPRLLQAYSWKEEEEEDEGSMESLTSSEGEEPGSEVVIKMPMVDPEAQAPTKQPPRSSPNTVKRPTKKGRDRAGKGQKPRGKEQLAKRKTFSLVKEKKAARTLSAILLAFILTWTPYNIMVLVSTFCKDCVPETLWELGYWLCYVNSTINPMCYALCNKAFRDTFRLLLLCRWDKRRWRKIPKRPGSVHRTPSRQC

[7] = target: T5, Muscarinic acetylcholine receptor M1; type: functional, cell-based; remark: listed apart in the source
Also: assay procedure not described here.

Neuronal acetylcholine receptor subunit alpha-4, sequence (P43681 whole entry): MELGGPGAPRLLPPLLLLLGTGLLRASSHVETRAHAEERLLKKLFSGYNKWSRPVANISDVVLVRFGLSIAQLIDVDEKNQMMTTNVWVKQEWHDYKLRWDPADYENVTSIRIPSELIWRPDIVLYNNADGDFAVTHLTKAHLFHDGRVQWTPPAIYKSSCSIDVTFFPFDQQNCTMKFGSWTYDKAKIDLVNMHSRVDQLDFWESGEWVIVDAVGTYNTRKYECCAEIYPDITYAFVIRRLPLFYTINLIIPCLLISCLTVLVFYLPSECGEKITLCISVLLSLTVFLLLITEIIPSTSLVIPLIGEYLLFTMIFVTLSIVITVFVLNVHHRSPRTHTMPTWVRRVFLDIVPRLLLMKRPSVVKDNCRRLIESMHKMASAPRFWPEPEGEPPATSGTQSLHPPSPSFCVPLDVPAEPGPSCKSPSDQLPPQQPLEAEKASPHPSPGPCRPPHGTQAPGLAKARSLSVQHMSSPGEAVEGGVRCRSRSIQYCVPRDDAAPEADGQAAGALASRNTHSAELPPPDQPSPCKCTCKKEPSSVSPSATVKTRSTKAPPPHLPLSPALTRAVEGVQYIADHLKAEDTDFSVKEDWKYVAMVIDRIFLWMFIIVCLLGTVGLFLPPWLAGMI
D(1A) dopamine receptor, sequence (P21728 whole entry): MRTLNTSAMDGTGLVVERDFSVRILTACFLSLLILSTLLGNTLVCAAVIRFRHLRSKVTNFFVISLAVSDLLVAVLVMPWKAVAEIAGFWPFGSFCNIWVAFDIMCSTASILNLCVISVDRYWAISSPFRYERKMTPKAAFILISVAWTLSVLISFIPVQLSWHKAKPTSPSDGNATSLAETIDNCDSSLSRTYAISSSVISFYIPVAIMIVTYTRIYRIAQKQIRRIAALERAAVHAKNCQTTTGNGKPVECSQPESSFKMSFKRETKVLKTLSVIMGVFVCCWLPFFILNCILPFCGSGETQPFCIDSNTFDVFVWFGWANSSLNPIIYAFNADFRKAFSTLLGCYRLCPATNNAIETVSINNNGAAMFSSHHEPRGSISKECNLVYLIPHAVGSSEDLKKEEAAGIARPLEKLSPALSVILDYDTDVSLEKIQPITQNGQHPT
Vascular endothelial growth factor receptor 2, sequence (P35968 whole entry): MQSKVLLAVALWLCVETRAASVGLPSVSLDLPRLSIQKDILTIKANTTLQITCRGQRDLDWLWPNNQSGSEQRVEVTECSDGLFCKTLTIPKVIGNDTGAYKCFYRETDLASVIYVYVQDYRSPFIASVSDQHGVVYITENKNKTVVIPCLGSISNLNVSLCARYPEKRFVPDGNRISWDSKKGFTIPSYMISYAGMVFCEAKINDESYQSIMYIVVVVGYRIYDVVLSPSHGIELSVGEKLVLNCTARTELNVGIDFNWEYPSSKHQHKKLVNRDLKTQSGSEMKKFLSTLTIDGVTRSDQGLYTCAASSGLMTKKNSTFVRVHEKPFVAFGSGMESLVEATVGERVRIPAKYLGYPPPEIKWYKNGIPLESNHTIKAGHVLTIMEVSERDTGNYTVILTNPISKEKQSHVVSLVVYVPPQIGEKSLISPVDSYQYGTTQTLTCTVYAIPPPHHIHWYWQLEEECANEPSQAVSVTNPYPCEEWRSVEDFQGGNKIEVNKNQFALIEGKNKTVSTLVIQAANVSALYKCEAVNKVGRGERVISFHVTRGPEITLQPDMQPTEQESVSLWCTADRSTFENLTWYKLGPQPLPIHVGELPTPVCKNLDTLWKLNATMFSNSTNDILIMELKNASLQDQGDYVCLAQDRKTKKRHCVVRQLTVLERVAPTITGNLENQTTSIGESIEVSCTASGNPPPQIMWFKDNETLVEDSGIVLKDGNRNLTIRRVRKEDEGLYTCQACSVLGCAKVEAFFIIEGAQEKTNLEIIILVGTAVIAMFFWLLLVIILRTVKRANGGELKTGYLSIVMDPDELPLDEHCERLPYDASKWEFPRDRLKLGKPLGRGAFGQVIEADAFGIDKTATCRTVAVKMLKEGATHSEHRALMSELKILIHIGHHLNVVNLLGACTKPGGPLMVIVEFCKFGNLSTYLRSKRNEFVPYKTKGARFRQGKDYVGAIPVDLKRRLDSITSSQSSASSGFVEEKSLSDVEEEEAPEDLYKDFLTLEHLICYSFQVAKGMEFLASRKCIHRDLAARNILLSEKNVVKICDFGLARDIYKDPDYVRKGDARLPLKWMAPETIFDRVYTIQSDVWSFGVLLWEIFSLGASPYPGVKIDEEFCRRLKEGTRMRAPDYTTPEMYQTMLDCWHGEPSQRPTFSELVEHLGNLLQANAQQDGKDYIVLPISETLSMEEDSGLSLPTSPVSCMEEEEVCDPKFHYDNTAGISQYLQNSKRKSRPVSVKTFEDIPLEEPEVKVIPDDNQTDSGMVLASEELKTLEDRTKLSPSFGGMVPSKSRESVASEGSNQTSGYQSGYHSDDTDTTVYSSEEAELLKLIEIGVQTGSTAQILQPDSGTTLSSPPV

SMILES | AC50 (D(1A) dopamine receptor) [µM] | AC50 (Adenosine receptor A1) [µM] | AC50 [1] [µM] | AC50 [2] [µM] | AC50 [3] [µM] | AC50 [4] [µM] | AC50 (Adenosine receptor A3) [µM] | AC50 [5] [µM] | AC50 [6] [µM] | AC50 [7] [µM]
C[C@]12CC[C@H](O)CC1=CC[C@@H]1[C@@H]2CC[C@]2(C)C(c3cccnc3)=CC[C@@H]12 [ABIRATERONE] | > 10 | > 30 | > 10 | > 10 | > 10 | > 10 | – | – | – | –
CN(C)C(=O)Oc1cc(OC(=O)N(C)C)cc(C(O)CNC(C)(C)C)c1 (stereo not drawn) [BAMBUTEROL] | – | > 30 | – | – | > 30 | – | – | – | – | –
C[C@H]1C[C@H]2[C@@H]3CCC4=CC(=O)C=C[C@]4(C)[C@@]3(Cl)[C@@H](O)C[C@]2(C)[C@@]1(O)C(=O)CO [BECLOMETHASONE] | – | > 30 | > 10 | – | > 10 | – | – | – | – | –
NS(=O)(=O)c1cc(C2(O)NC(=O)c3ccccc32)ccc1Cl (stereo not drawn) [CHLORTHALIDONE] | > 10 | > 10 | > 10 | > 10 | > 10 | > 10 | – | – | – | –
O=C(O)CC(O)(CC(=O)O)C(=O)O [CITRIC ACID] | – | – | – | – | – | – | > 30 | > 30 | – | –
C[C@@H]1CCC[C@H](C)N1NC(=O)c1ccc(Cl)c(S(N)(=O)=O)c1 [CLOPAMIDE] | > 30 | > 30 | > 30 | > 30 | > 30 | > 30 | – | – | – | –
Nc1ccncc1 [DALFAMPRIDINE] | – | – | – | – | – | – | > 30 | – | 27.9 | > 3
COc1ccc2c(c1)[C@]13CCCC[C@@H]1[C@H](C2)N(C)CC3 [DEXTROMETHORPHAN] | > 10 | > 30 | > 10 | > 10 | > 10 | > 10 | – | – | – | –
Cc1onc(-c2c(Cl)cccc2Cl)c1C(=O)N[C@@H]1C(=O)N2[C@@H]1SC(C)(C)[C@@H]2C(=O)O [DICLOXACILLIN] | – | – | – | – | – | – | > 30 | > 30 | > 30 | > 30
O=c1oc2ccccc2c(O)c1Cc1c(O)c2ccccc2oc1=O [DICUMAROL] | > 10 | > 10 | > 10 | > 10 | > 10 | > 10 | – | – | – | –
C[C@H]1O[C@@H](O[C@H]2[C@@H](O)C[C@H](O[C@H]3[C@@H](O)C[C@H](O[C@H]4CC[C@@]5(C)[C@H](CC[C@@H]6[C@@H]5CC[C@]5(C)[C@@H](C7=CC(=O)OC7)CC[C@]65O)C4)O[C@@H]3C)O[C@@H]2C)C[C@H](O)[C@@H]1O [DIGITOXIN] | – | – | – | – | – | – | > 30 | > 30 | – | –
OC(CCCN1CCCCC1)(c1ccccc1)c1ccccc1 [DIPHENIDOL] | – | – | – | – | – | – | > 30 | > 30 | – | –
O=C(O)CSCC(=O)NC1CCSC1=O (stereo not drawn) [ERDOSTEINE] | > 30 | > 30 | > 30 | > 30 | > 30 | > 30 | – | – | – | –
C[C@@H](O)[C@H]1C(=O)N2C(C(=O)O)=C([C@H]3CCCO3)S[C@H]12 [FAROPENEM] | – | – | – | – | – | – | > 30 | > 30 | > 30 | > 30
COCCOc1cnc(NS(=O)(=O)c2ccccc2)nc1 [GLYMIDINE] | – | – | – | – | – | – | > 30 | > 30 | > 30 | > 30
COc1cccc(N(C)C(=S)Oc2ccc3c(c2)CCCC3)n1 [LIRANAFTATE] | > 30 | > 30 | 18 | > 30 | > 30 | > 30 | – | – | – | –
C#C[C@]1(O)CC[C@H]2[C@@H]3CCc4cc(OC)ccc4[C@H]3CC[C@@]21C [MESTRANOL] | > 10 | > 30 | > 30 | > 10 | > 10 | > 10 | – | – | – | –
N=C(N)c1ccc2cc(OC(=O)c3ccc(N=C(N)N)cc3)ccc2c1 [NAFAMOSTAT] | > 30 | > 30 | 14 | > 30 | > 30 | > 30 | – | – | – | –
CNC(=O)Oc1ccc2c(c1)[C@]1(C)CCN(C)[C@@H]1N2C [PHYSOSTIGMINE] | > 30 | > 30 | > 30 | > 30 | > 30 | > 30 | > 30 | > 30 | – | –
O=C(O)c1cc(O)c2c3nc4ccccc4oc-3cc(=O)c2n1 [PIRENOXINE] | > 30 | > 30 | 2.2 | > 30 | > 30 | > 30 | – | – | – | –
NS(=O)(=O)c1cc(C(=O)O)cc(N2CCCC2)c1Oc1ccccc1 [PIRETANIDE] | > 30 | > 30 | > 30 | > 30 | > 30 | > 30 | – | – | – | –
CNCCCC1c2ccccc2C=Cc2ccccc21 [PROTRIPTYLINE] | > 10 | > 10 | > 10 | – | > 10 | > 10 | – | – | – | –
CO[C@H]1/C=C/O[C@@]2(C)Oc3c(C)c(O)c4c(O)c(cc(O)c4c3C2=O)NC(=O)/C(C)=C\C=C\[C@H](C)[C@H](O)[C@@H](C)[C@@H](O)[C@@H](C)[C@H](OC(C)=O)[C@@H]1C [RIFAMYCIN] | – | – | – | – | – | – | > 30 | > 30 | 11.6 | –
CC(C)=CCOc1ccc(/C=C/C(=O)c2ccc(OCC=C(C)C)cc2OCC(=O)O)cc1 [SOFALCONE] | > 30 | > 30 | > 30 | > 30 | > 30 | > 30 | – | – | – | –
O=C(CCCN1CCC2(CC1)C(=O)NCN2c1ccccc1)c1ccc(F)cc1 [SPIPERONE] | – | > 30 | > 30 | 0.98 | > 30 | 4.5 | – | – | – | –
c1ccc2[nH]c(-c3cscn3)nc2c1 [THIABENDAZOLE] | – | – | – | – | – | – | 3.73 | > 30 | – | –
CCSc1ccc2c(c1)N(CCCN1CCN(C)CC1)c1ccccc1S2 [THIETHYLPERAZINE] | – | – | > 30 | – | > 3 | – | 6.62 | > 30 | 29.1 | –
CN(C)c1cc(NC(=O)CNC(C)(C)C)c(O)c2c1C[C@H]1C[C@H]3[C@H](N(C)C)C(O)=C(C(N)=O)C(=O)[C@@]3(O)C(O)=C1C2=O [TIGECYCLINE] | > 30 | > 30 | > 30 | > 30 | > 30 | > 30 | – | – | – | –
OCCN1CCN(CC/C=C2/c3ccccc3Sc3ccc(Cl)cc32)CC1 [ZUCLOPENTHIXOL] | > 10 | > 10 | > 10 | 7.3 | > 10 | > 10 | – | – | – | –
